Measured values taken from patent US7879868B2 (Novartis AG, priority 2002, dated 2011).
Like-named read-outs stand apart in the source and are kept apart here.

What was measured:
[1] = Effect of imatinib on irinotecan pharmacokinetics in mice; settings: for bioavailability: mouse, plasma, oral; for SN-38 plasma exposure: irinotecan 10 mg/kg oral
From the text: Ci: rate of clearance; Ka: absorption rate; F: calculated bioavailability (relative to intravenous dosing).

Saos2pcDNA#3#2 cells = experiment: Growth inhibition in vector control Saos2 cells; type: cell-based, human
Saos2BCRP#4 cells = experiment: cells
Saos2BCRPMUT#10 cells = experiment: cells
BCRP = target: T1, BCRP (Homo sapiens, UniProt Q9UNQ0)
T1 sequence (Q9UNQ0 1-655): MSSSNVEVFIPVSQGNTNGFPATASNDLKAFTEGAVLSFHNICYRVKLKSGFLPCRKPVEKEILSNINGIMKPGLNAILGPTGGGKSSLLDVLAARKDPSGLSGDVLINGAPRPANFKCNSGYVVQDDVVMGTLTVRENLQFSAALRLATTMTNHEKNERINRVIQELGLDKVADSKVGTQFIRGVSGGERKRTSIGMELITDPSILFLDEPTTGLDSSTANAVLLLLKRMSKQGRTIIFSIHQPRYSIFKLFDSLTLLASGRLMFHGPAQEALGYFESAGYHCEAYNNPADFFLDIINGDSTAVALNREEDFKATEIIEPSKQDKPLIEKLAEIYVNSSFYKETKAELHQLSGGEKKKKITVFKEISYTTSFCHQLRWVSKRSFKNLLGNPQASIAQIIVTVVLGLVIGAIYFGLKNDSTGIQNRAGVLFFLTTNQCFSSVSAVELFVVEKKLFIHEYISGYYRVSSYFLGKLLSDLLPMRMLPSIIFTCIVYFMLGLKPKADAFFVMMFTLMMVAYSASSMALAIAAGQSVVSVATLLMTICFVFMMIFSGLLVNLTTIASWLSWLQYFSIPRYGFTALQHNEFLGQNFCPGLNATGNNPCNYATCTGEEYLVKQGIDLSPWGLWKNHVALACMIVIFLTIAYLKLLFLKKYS

[2] = read-out: concentration of SN-38 causing 50% growth inhibition (IC50), imatinib 0 μM
[3] = read-out: concentration of SN-38 causing 50% growth inhibition (IC50), imatinib 0.1 μM
[4] = read-out: concentration of SN-38 causing 50% growth inhibition (IC50), imatinib 0.3 μM
[5] = read-out: concentration of SN-38 causing 50% growth inhibition (IC50), imatinib 1.0 μM
[6] = read-out: concentration of SN-38 causing 50% growth inhibition (IC50), imatinib 3.0 μM
[7] = Homo sapiens, SAOS-2, read-out: concentration of topotecan causing 50% growth inhibition, in presence of 1 μM imatinib
[8] = Homo sapiens, SAOS-2, read-out: concentration of topotecan causing 50% growth inhibition, in presence of 3 μM imatinib
[9] = Homo sapiens, SAOS-2, read-out: concentration of topotecan causing 50% growth inhibition, in presence of 5 μM imatinib
[10] = Homo sapiens, SAOS-2, read-out: concentration of topotecan causing 50% growth inhibition, topotecan alone

## CCc1c2c(nc3ccc(OC(=O)N4CCC(N5CCCCC5)CC4)cc13)-c1cc3c(c(=O)n1C2)COC(=O)[C@]3(O)CC [IRN]
[1]
  bioavailability: 23 ± 2%
[1]; 10 mg/kg
  bioavailability: 9 ± 2%

## CCc1c2c(nc3ccc(O)cc13)-c1cc3c(c(=O)n1C2)COC(=O)[C@]3(O)CC [SN-38, 7-ethyl-10-hydroxycamptothecin]
Saos2pcDNA#3#2 cells; [2]
  IC50: 2.9 nM
Saos2pcDNA#3#2 cells; [3]
  IC50: 2.7 nM
Saos2pcDNA#3#2 cells; [4]
  IC50: 2.7 nM
Saos2pcDNA#3#2 cells; [5]
  IC50: 3.3 nM
Saos2pcDNA#3#2 cells; [6]
  IC50: 3.7 nM
Saos2BCRP#4 cells; [2]
  IC50: > 100 nM
Saos2BCRP#4 cells; [3]
  IC50: 82 nM
Saos2BCRP#4 cells; [4]
  IC50: 29 nM
Saos2BCRP#4 cells; [5]
  IC50: 14 nM
Saos2BCRP#4 cells; [6]
  IC50: 7 nM
Saos2BCRPMUT#10 cells; [2]
  IC50: 1.7 nM
Saos2BCRPMUT#10 cells; [3]
  IC50: 1.7 nM
Saos2BCRPMUT#10 cells; [4]
  IC50: 1.6 nM
Saos2BCRPMUT#10 cells; [5]
  IC50: 1.7 nM
Saos2BCRPMUT#10 cells; [6]
  IC50: 1.6 nM
[1]; mice, with imatinib 50 mg/kg oral
  SN-38 plasma exposure: 775 ng/h/mL
[1]; mice, without imatinib
  SN-38 plasma exposure: 263 ng/h/mL

## Cc1ccc(NC(=O)c2ccc(CN3CCN(C)CC3)cc2)cc1Nc1nccc(-c2cccnc2)n1 [imatinib]
BCRP
  reversal of BCRP-mediated resistance to topotecan (summary of Table 1): complete reversal of BCRP-mediated resistance to topotecan
[1]; mice, imatinib 50 mg/kg oral + irinotecan 10 mg/kg oral
  effect of imatinib on oral bioavailability of irinotecan: enhances oral bioavailability of irinotecan

## CC[C@@]1(O)C(=O)OCc2c1cc1n(c2=O)Cc2cc3c(CN(C)C)c(O)ccc3nc2-1 [topotecan]
Saos2pcDNA#3#2 cells; Homo sapiens, SAOS-2, Saos2pcDNA cells, read-out: IC50 concentration of topotecan
  IC50: 16 nM
Saos2pcDNA#3#2 cells; Homo sapiens, SAOS-2, in presence of 1 μM imatinib, read-out: concentration of topotecan causing 50% growth inhibition
  IC50: 23 nM
Saos2pcDNA#3#2 cells; Homo sapiens, SAOS-2, in presence of 3 μM imatinib, read-out: concentration of topotecan causing 50% growth inhibition
  IC50: 20 nM
Saos2pcDNA#3#2 cells; Homo sapiens, SAOS-2, in presence of 5 μM imatinib, read-out: concentration of topotecan causing 50% growth inhibition
  IC50: 23 nM
Saos2pcDNA#3#2 cells; Homo sapiens, SAOS-2, topotecan alone, read-out: concentration of topotecan causing 50% growth inhibition
  IC50: 20 nM
Saos2BCRP#4 cells; Homo sapiens, SAOS-2, read-out: IC50 concentration of topotecan, Saos2BCRP#4 cells
  IC50: 167 nM
Saos2BCRP#4 cells; [7]
  IC50: 35 nM
Saos2BCRP#4 cells; [8]
  IC50: 24 nM
Saos2BCRP#4 cells; [9]
  IC50: 22 nM
Saos2BCRP#4 cells; [10]
  IC50: 254 nM
Saos2BCRPMUT#10 cells; Homo sapiens, SAOS-2, read-out: IC50 concentration of topotecan, Saos2Mut#10 cells
  IC50: 9 nM
Saos2BCRPMUT#10 cells; [7]
  IC50: 18 nM
Saos2BCRPMUT#10 cells; [8]
  IC50: 9.9 nM
Saos2BCRPMUT#10 cells; [9]
  IC50: 15 nM
Saos2BCRPMUT#10 cells; [10]
  IC50: 9 nM
